Measured values from patent US9321776B2, “Isochromene derivatives as phoshoinositide 3-kinases inhibitors” (CHIESI FARMACEUTICI S.p.A., priority 2013, dated 2016).
pIC50: −log10 of the molar value. Where a name gives a salt, the structure may show the parent alone.

Key:
Assay in all cases: PI3K enzyme inhibitory activity in the cell free assay (ADP-Glo Kinase Assay)
Assay type in all cases: biochemical
[1] = target: T1, PI3Kα (Homo sapiens, UniProt P42336); conditions: human recombinant PI3Kα, ATP 50 μM; read-out: PI3K alpha inhibition
T1 construct: purchased Millipore Ltd (Billerica, Mass.)
T1 sequence (P42336 whole entry): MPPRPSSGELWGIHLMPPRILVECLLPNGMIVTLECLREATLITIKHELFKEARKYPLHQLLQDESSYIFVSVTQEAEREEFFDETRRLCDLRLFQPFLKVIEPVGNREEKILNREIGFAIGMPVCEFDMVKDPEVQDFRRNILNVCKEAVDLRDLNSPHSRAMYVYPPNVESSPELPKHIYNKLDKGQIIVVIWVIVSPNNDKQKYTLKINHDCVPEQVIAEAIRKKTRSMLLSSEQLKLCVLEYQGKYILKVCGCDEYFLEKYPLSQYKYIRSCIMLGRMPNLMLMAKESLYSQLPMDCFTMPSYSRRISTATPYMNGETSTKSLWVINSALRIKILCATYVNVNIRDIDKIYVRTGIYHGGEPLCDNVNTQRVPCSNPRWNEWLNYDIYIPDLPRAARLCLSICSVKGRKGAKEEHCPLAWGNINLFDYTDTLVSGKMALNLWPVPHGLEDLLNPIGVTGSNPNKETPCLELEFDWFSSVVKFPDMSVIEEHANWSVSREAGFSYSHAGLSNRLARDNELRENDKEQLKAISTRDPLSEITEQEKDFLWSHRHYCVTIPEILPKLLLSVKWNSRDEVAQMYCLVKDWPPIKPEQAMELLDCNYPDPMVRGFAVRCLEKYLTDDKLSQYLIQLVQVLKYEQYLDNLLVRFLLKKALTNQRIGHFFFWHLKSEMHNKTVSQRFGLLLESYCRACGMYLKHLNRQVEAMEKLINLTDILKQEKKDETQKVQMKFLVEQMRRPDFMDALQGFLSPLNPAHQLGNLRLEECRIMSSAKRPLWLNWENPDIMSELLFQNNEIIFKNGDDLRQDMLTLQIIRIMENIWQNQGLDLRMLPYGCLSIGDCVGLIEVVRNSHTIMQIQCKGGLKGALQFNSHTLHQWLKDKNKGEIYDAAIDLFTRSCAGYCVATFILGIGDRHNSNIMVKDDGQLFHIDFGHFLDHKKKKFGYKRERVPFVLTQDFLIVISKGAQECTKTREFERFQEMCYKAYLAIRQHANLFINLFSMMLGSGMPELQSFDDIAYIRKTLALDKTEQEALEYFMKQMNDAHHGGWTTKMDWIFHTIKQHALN

[2] = target: T2, PI3Kγ (Homo sapiens, UniProt P48736); conditions: human recombinant PI3Kγ, ATP 30 μM; read-out: PI3K gamma inhibition
T2 construct: purchased Millipore Ltd (Billerica, Mass.)
T2 sequence (P48736 whole entry): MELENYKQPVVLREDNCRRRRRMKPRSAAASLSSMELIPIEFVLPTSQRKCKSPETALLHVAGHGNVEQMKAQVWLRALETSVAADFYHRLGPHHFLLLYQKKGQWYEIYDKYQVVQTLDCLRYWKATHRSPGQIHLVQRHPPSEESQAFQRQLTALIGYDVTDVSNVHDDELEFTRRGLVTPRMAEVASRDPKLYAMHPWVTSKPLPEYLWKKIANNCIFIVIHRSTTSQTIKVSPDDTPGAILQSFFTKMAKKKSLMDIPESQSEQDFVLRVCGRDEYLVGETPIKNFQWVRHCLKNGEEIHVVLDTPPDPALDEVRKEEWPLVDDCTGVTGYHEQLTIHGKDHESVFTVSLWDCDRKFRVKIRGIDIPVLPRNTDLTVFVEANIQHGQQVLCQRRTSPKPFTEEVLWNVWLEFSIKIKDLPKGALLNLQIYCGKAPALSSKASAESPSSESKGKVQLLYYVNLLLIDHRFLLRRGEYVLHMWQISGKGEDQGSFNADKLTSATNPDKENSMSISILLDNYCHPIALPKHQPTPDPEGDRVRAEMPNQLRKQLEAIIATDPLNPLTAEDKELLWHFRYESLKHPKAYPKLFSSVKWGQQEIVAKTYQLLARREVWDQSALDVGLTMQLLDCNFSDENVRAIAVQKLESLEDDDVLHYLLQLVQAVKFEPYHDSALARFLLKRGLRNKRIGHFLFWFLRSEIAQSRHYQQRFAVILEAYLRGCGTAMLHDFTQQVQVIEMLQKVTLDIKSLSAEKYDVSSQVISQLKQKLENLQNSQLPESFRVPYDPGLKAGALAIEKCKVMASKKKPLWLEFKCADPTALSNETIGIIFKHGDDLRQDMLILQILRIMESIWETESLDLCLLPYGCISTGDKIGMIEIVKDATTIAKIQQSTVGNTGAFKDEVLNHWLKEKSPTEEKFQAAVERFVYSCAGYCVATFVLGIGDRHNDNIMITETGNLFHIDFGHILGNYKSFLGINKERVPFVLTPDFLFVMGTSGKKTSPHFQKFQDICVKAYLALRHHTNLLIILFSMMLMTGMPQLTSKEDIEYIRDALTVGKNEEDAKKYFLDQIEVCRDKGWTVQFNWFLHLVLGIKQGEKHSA

[3] = target: T3, PI3Kδ (Homo sapiens, UniProt O00329); conditions: human recombinant PI3Kδ, ATP 80 μM; read-out: PI3K delta inhibition
T3 construct: purchased Millipore Ltd (Billerica, Mass.)
T3 sequence (O00329 1-1044): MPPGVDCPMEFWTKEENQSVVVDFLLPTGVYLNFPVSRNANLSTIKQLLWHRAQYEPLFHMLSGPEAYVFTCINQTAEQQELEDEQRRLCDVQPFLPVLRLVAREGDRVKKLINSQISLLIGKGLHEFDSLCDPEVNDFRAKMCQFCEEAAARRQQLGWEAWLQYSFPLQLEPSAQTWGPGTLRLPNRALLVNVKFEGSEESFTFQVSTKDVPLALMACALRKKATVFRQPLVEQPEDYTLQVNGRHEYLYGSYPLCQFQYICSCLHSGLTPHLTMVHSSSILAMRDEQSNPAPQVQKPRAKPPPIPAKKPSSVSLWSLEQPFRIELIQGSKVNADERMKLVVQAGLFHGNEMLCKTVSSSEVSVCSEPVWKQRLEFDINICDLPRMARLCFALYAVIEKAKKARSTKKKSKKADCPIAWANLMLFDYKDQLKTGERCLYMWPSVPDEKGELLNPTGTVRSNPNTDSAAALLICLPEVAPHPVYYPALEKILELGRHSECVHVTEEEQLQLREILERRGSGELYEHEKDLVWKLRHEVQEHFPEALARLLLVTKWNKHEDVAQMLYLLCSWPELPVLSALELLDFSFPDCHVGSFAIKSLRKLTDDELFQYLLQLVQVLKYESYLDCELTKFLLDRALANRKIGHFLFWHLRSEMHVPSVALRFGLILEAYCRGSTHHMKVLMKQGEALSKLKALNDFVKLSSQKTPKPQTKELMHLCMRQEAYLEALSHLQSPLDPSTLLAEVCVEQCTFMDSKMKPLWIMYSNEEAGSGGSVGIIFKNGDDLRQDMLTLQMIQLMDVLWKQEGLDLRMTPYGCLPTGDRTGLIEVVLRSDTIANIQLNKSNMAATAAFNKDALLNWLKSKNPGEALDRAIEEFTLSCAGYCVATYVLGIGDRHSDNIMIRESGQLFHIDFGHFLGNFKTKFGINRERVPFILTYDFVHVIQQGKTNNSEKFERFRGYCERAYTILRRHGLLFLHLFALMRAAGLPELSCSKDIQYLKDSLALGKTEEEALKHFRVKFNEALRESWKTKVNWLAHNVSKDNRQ

[4] = target: T4, PI3Kβ (Homo sapiens, UniProt P42338); conditions: human recombinant PI3Kβ, ATP 100 μM; read-out: PI3K beta inhibition
T4 construct: purchased Millipore Ltd (Billerica, Mass.)
T4 sequence (P42338 whole entry): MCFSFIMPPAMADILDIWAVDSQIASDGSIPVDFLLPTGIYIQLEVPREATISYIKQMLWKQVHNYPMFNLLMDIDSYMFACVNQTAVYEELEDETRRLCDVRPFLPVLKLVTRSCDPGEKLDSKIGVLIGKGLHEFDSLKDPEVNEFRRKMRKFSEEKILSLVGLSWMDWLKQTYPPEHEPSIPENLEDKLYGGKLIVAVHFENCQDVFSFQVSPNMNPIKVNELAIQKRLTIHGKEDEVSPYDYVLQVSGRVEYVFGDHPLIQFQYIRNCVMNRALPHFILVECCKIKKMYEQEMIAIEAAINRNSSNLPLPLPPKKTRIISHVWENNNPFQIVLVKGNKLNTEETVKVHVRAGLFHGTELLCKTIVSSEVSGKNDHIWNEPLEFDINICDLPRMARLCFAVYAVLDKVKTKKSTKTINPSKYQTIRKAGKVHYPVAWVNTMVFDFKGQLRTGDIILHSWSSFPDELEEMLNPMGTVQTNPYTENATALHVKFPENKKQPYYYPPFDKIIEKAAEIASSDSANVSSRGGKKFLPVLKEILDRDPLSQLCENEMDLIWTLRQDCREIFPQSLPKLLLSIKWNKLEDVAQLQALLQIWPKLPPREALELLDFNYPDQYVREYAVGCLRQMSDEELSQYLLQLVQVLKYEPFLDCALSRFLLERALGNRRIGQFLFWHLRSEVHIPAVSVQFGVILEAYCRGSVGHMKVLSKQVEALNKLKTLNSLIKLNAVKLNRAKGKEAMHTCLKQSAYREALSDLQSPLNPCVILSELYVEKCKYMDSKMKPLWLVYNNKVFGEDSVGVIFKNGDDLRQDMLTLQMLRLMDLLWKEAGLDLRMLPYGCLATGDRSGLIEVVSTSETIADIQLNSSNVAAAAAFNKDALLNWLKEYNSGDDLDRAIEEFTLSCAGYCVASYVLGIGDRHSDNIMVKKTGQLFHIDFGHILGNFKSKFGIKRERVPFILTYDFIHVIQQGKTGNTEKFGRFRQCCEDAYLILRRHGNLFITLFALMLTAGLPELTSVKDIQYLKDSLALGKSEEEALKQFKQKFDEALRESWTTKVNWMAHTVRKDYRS

| pIC50 [1] | pIC50 [2] | pIC50 [3] | pIC50 [4] | Compound |
| --- | --- | --- | --- | --- |
| < 6.00 | 6.00 to 8.00 | > 8.00 | < 6.00 | CC(c1oc(=O)c2ccccc2c1-c1ccc(CCCN(C)C)cc1)n1nc(-c2cc(O)cc(F)c2)c2c(N)ncnc21 (single isomer, unassigned) [Example 138b, 3-(1-(4-amino-3-(3-fluoro-5-hydroxyphenyl)-1H-pyrazolo[3,4-d]pyrimidin-1-yl)ethyl)-4-(4-(3-(dimethylamino)propyl)phenyl)-1H-isochromen-1-one single enantiomers] |
| 6.00 to 8.00 | 6.00 to 8.00 | > 8.00 | 6.00 to 8.00 | Cc1cccc(-c2c(C(C)n3nc(-c4cc(O)cc(F)c4)c4c(N)ncnc43)oc(=O)c3ccccc23)c1 (stereo not drawn) [Example 41, 3-(1-(4-Amino-3-(3-fluoro-5-hydroxyphenyl)-1H-pyrazolo[3,4-d]pyrimidin-1-yl)ethyl)-4-m-tolyl-1H-isochromen-1-one] |
| 6.00 to 8.00 | 6.00 to 8.00 | > 8.00 | 6.00 to 8.00 | CC(c1oc(=O)c2ccccc2c1C1=CCCN(C2CNC2)C1)n1nc(-c2cc(O)cc(F)c2)c2c(N)ncnc21 (stereo not drawn) [Example 173, 3-(1-(4-amino-3-(3-fluoro-5-hydroxyphenyl)-1H-pyrazolo[3,4-d]pyrimidin-1-yl)ethyl)-4-(1-(azetidin-3-yl)-1,2,5,6-tetrahydropyridin-3-yl)-1H-isochromen-1-one dihydrochloride] |
| 6.00 to 8.00 | 6.00 to 8.00 | 6.00 to 8.00 | 6.00 to 8.00 | CC(Nc1ncnc(N)c1C#N)c1oc(=O)c2ccccc2c1-c1cn[nH]c1 (stereo not drawn) [Example 123, 4-amino-6-((1-(1-oxo-4-(1H-pyrazol-4-yl)-1H-isochromen-3-yl)ethyl)amino)pyrimidine-5-carbonitrile hydrochloride] |
| 6.00 to 8.00 | 6.00 to 8.00 | > 8.00 | 6.00 to 8.00 | CC(c1oc(=O)c2ccccc2c1C1=CC(C)(C)NC(C)(C)C1)n1nc(-c2cncc(O)c2)c2c(N)ncnc21 (stereo not drawn) [Example 145, 3-(1-(4-amino-3-(5-hydroxypyridin-3-yl)-1H-pyrazolo[3,4-d]pyrimidin-1-yl)ethyl)-4-(2,2,6,6-tetramethyl-1,2,3,6-tetrahydropyridin-4-yl)-1H-isochromen-1-one dihydrochloride] |
| 6.00 to 8.00 | 6.00 to 8.00 | > 8.00 | 6.00 to 8.00 | CC(Nc1ncnc2[nH]cnc12)c1oc(=O)c2ccccc2c1-c1cn[nH]c1 (stereo not drawn) [Example 122, 3-(1-(9H-purin-6-ylamino)ethyl)-4-(1H-pyrazol-4-yl)-1H-isochromen-1-one] |
| 6.00 to 8.00 | 6.00 to 8.00 | > 8.00 | 6.00 to 8.00 | CC(c1oc(=O)c2ccccc2c1-c1ccc(CN2CCCCC2)s1)n1nc(-c2cc(O)cc(F)c2)c2c(N)ncnc21 (single isomer, unassigned) [Example 68b, 3-(1-(4-amino-3-(3-fluoro-5-hydroxyphenyl)-1H-pyrazolo[3,4-d]pyrimidin-1-yl)ethyl)-4-(5-(piperidin-1-ylmethyl)thiophen-2-yl)-1H-isochromen-1-one hydrochloride single enantiomers] |
| < 6.00 | < 6.00 | > 8.00 | 6.00 to 8.00 | CC(c1oc(=O)c2ccccc2c1C1=CCN(C)CC1)n1nc(-c2cc(O)cc(Cl)c2)c2c(N)ncnc21 (stereo not drawn) [Example 154, 3-(1-(4-amino-3-(3-chloro-5-hydroxyphenyl)-1H-pyrazolo[3,4-d]pyrimidin-1-yl)ethyl)-4-(1-methyl-1,2,3,6-tetrahydropyridin-4-yl)-1H-isochromen-1-one formate] |
| < 6.00 | 6.00 to 8.00 | > 8.00 | 6.00 to 8.00 | CC(c1oc(=O)c2ccccc2c1-c1cccc(C(=O)NCCN(C)C)c1)n1nc(-c2cc(O)cc(F)c2)c2c(N)ncnc21 (stereo not drawn) [Example 70, 3-(3-(1-(4-amino-3-(3-fluoro-5-hydroxyphenyl)-1H-pyrazolo[3,4-d]pyrimidin-1-yl)ethyl)-1-oxo-1H-isochromen-4-yl)-N-(2-(dimethylamino)ethyl)benzamide hydrochloride] |
| < 6.00 | 6.00 to 8.00 | 6.00 to 8.00 | < 6.00 | CC(Nc1ncnc2[nH]cnc12)c1oc(=O)c2ccccc2c1-c1ccc(CN2CCOCC2)cc1 (stereo not drawn) [Example 47, 3-(1-(9H-purin-6-ylamino)ethyl)-4-(4-(morpholinomethyl)phenyl)-1H-isochromen-1-one hydrochloride] |
| < 6.00 | 6.00 to 8.00 | 6.00 to 8.00 | 6.00 to 8.00 | CC(c1oc(=O)c2ccccc2c1-c1cnc(N)s1)n1nc(-c2cc(O)cc(F)c2)c2c(N)ncnc21 (stereo not drawn) [Example 121, 3-(1-(4-amino-3-(3-fluoro-5-hydroxyphenyl)-1H-pyrazolo[3,4-d]pyrimidin-1-yl)ethyl)-4-(2-aminothiazol-5-yl)-1H-isochromen-1-one hydrochloride] |
| < 6.00 | 6.00 to 8.00 | > 8.00 | 6.00 to 8.00 | CC(c1oc(=O)c2ccccc2c1C1=CCN(C(=O)C2CCN(C)CC2)CC1)n1nc(-c2cc(O)cc(F)c2)c2c(N)ncnc21 (stereo not drawn) [Example 148, 3-(1-(4-amino-3-(3-fluoro-5-hydroxyphenyl)-1H-pyrazolo[3,4-d]pyrimidin-1-yl)ethyl)-4-(1-(1-methylpiperidine-4-carbonyl)-1,2,3,6-tetrahydropyridin-4-yl)-1H-isochromen-1-one formate] |
| < 6.00 | 6.00 to 8.00 | > 8.00 | < 6.00 | Cc1cccc(-c2c(C(C)n3nc(I)c4c(N)ncnc43)oc(=O)c3ccccc23)c1 (stereo not drawn) [Int D3, 3-(1-(4-Amino-3-iodo-1H-pyrazolo[3,4-d]pyrimidin-1-yl)ethyl)-4-m-tolyl-1H-isochromen-1-one] |
| < 6.00 | 6.00 to 8.00 | > 8.00 | 6.00 to 8.00 | CC(c1oc(=O)c2ccccc2c1C1=CC(C)(C)NC(C)(C)C1)n1nc(-c2cc(O)cc(F)c2)c2c(N)ncnc21 (stereo not drawn) [Example 144, 3-(1-(4-amino-3-(3-fluoro-5-hydroxyphenyl)-1H-pyrazolo[3,4-d]pyrimidin-1-yl)ethyl)-4-(2,2,6,6-tetramethyl-1,2,3,6-tetrahydropyridin-4-yl)-1H-isochromen-1-one hydrochloride] |
| 6.00 to 8.00 | 6.00 to 8.00 | > 8.00 | 6.00 to 8.00 | Cc1ncc(-c2nn(C(C)c3oc(=O)c4ccccc4c3-c3ccccc3)c3ncnc(N)c23)cc1O (stereo not drawn) [Example 99, 3-(1-(4-amino-3-(5-hydroxy-6-methylpyridin-3-yl)-1H-pyrazolo[3,4-d]pyrimidin-1-yl)ethyl)-4-phenyl-1H-isochromen-1-one] |
| 6.00 to 8.00 | 6.00 to 8.00 | > 8.00 | 6.00 to 8.00 | CC(c1oc(=O)c2ccccc2c1C1=CCN(C(=O)CN(C)C)CC1)n1nc(-c2cc(O)cc(F)c2)c2c(N)ncnc21 (stereo not drawn) [Example 147, 3-(1-(4-amino-3-(3-fluoro-5-hydroxyphenyl)-1H-pyrazolo[3,4-d]pyrimidin-1-yl)ethyl)-4-(1-(2-(dimethylamino)acetyl)-1,2,3,6-tetrahydropyridin-4-yl)-1H-isochromen-1-one formate] |
| 6.00 to 8.00 | < 6.00 | 6.00 to 8.00 | 6.00 to 8.00 | CC(c1oc(=O)c2ccccc2c1C1=CC2CCC(C1)N2C)n1nc(-c2cc(O)cc(F)c2)c2c(N)ncnc21 (stereo not drawn) [Example 92, 3-(1-(4-amino-3-(3-fluoro-5-hydroxyphenyl)-1H-pyrazolo[3,4-d]pyrimidin-1-yl)ethyl)-4-(8-methyl-8-azabicyclo[3.2.1]oct-2-en-3-yl)-1H-isochromen-1-one hydrochloride] |
| < 6.00 | 6.00 to 8.00 | 6.00 to 8.00 | < 6.00 | CC(c1oc(=O)c2ccccc2c1-c1cccc(N(C)C)c1)n1nc(-c2cc(O)cc(F)c2)c2c(N)ncnc21 (stereo not drawn) [Example 119, 3-(1-(4-amino-3-(3-fluoro-5-hydroxyphenyl)-1H-pyrazolo[3,4-d]pyrimidin-1-yl)ethyl)-4-(3-(dimethylamino)phenyl)-1H-isochromen-1-one] |
